Patent US20240307283A1, “COMPOSITIONS AND METHODS FOR DECREASING PIGMENTATION” (The General Hospital Corporation, priority 2021, published 2024)
Peptide text beside a SMILES is read from it. * marks the point of attachment. Cbz = O=C(OCc1ccccc1)*

Key:
[1] = system: human skin explants (Fitzpatrick skin type 2); assay: Prevention of UVB-driven pigmentation in human skin explants; type: cell-based; conditions: UVB 150 mJ/cm^2
Protocol: (§1) Skin samples considered surgical waste were obtained de-identified from healthy donors (IRB #2013P000093) undergoing reconstructive surgery, according to institutional regulations. Full thickness human abdominal skin explants were cultured in petri dishes with a solid phase and liquid phase phenol red free DMEM medium containing 20% penicillin/streptomycin/glutamine, 5% fungizone (Gibco), and 10% fetal bovine serum. Compounds were applied strictly on top of the explants, making sure no drip occurred into the underlying media. For UV irradiation experiments, a UV lamp (UV Products) was used at 1000 mJ/cm^2 UVB.
The ability of a number of NNT activators to prevent UVB-driven pigmentation of skin was evaluated in human skin explants (Fitzpatrick skin type 2) with application of UVB 150 mJ/cm^2. […]

mouse B16 melanoma cells = assay: In vitro depigmentation of B16 melanoma cells; type: cell-based; conditions: 2 uM or 10 uM, DMSO-based carrier, 1-5 days (average 1.5 days), FIG. 12A
Protocol: (§2) The ability of 2 uM or 10 uM ASS, Usnic acid, 4-hexylresorcinol, candesartan, Nigericin, and Ginkgolic acid to depigment was evaluated in mouse B16 melanoma cells and melan-A melanocytes. A DMSO-based carrier solution was used, and the experiments carried out for 1-5 days, with an average of 1.5 days. 4-n-Butylresorcinol, N-Acetylcystein (NAC), and Phenylthiourea (PTU), were used as a positive control, and DMSO as a negative control.

human skin explants = assay: Depigmentation of human skin explants by NNT activators; type: cell-based; conditions: for ability to depigment skin: after 36 hours, FIGS. 13A-B; for ability to depigment skin / Dose needed to depigment within 36 h (skin type 2): DMSO-based carrier; for Dose needed to depigment within 36 h (skin type 2): single dose or lower end of the dose range
Protocol: as §1
The ability of ASS, Usnic acid, 4-hexylresorcinol, candesartan, Nigericin, elaidylphosphocholine, hexitidine, naproxol, and Ginkgolic acid to depigment skin was tested in human skin explants. A DMSO-based carrier solution was used. DMSO was used as a negative control. […]

[2] = system: mouse melan-A melanocytes; assay: In vitro depigmentation of melan-A melanocytes; type: cell-based; conditions: 2 uM or 10 uM, DMSO-based carrier, 1-5 days (average 1.5 days), FIG. 12B
Protocol: Murine Melan-A (Bennett et al., 1987) cells were obtained from the Wellcome Trust Functional Genomics Cell Bank. Melan-A cells were grown in RPMI 1640 supplemented with 10% FBS or FetalPlex (Gemini Bio-Products, #100-602), 100,000 U/L penicillin, 100 mg/L streptomycin sulphate, 100× Glutamax, and 200 nM TPA.
as §2

NNT = assay: Immunoblot of NNT after redox modulators; type: cell-based, human; conditions: UACC257, NAC 5 mM, MitoTEMPO 20 μM, H2O2 100 μM, daily for 72 hours
Protocol: Immunoblotting: Whole-cell protein lysates were prepared using RIPA lysis buffer (Sigma-Aldrich, #R0278) supplemented with Protease and Phosphatase Inhibitor (ThermoFisher Scientific, #P178445). Protein concentrations were quantified using the Pierce BCA protein assay (ThermoFisher Scientific, #23225). Immunoblotting was performed by standard techniques using 4-15% Criterion TGX Precast Midi Protein gels (Bio-Rad Laboratories, #5671084) and transferring to 0.2 μm nitrocellulose membranes (Bio-Rad Laboratories, #1620112). Membranes were blocked with 5% non-fat milk (Boston BioProducts, #P-1400) in PBS containing 0.1% […] and incubated with one of the following primary antibodies at the indicated dilution (antibody sources are in the Key Resources Table): 1:20 dilution of anti-MITF monoclonal antibody CS, 1:1,000 dilution of anti-Tyrosinase clone T311, 1:1,000 dilution of anti-Mitofusin-2 antibody [6A8], 1:500 dilution of TRP2/DCT antibody, 1:1,000 dilution of anti-NNT antibody [8B4BB10], 1:1,000 dilution of anti-IDH1 ([…]) antibody, 1:1,000 dilution of p53 antibody [PAb 240], 1:1,000 dilution of TYRP1 antibody [EPR21960], 1:1,000 dilution of mouse monoclonal antibody Pmel17 (E-7), or 1:1,000 dilution of LC3B (D11) rabbit monoclonal antibody. Incubation with the appropriate secondary antibody followed, either a 1:5,000 dilution of donkey anti-Rabbit IgG-HRP or a 1:3,000 dilution of Amersham ECL mouse IgG, HRP. To verify equal loading of samples, membranes were re-probed with a 1:20,000 dilution of monoclonal anti-β-actin-peroxidase (Sigma Aldrich, #A3854). Protein bands were visualized using Western Lightning Plus ECL (PerkinElmer, #NEL105001EA) and quantified using ImageJ software (NIH).

tyrosinase = assay: Cycloheximide chase assay of tyrosinase protein stability; type: cell-based, human; conditions: then CHX
Protocol: Cycloheximide chase assay: 72 h after siRNA transfection (sicontrol or siNNT), UACC257 melanoma cells were treated with a protein synthesis inhibitor, cyclohexamide (CHX, Sigma Aldrich #C7698, 50 μg/ml), for the indicated times and then immediately subjected to immunoblotting for tyrosinase protein expression. The expression of tyrosinase was quantified using ImageJ software based on band intensities and normalized to the intensities of the corresponding β-actin bands. The normalized tyrosinase expression was then defined as relative tyrosinase expression by setting the mean values at t=0 in each experimental group to 1.0. […] The siRNA-transfected cells were cultured for an additional 48 h in the presence of these agents and then examined by the CHX chase assay as described above. pLJM-1-EGFP or pLJM1-NNT/FLAG was introduced into UACC257 cells using Lipofectamine 3000, 48 after transfection, the transfection medium was replaced with fresh medium containing DMSO or 10 μM MG132 (Sigma Aldrich #M8699) and pre-incubated for 6 h. Then. CHX was added to assess tyrosinase protein stability as described above.

UACC257 cells = assay: siNNT-induced pigmentation with antioxidants, melanin content; type: cell-based, human; conditions: NAC 5 mM, MitoTEMPO 20 μM daily for 72 h; NADPH 0.1 M
Protocol: sIRNA transfection: A single treatment of 10 nmol/L of siRNA was delivered to a 60% confluent culture by transfection with Lipofectamine RNAiMAX (Life Technologies, #13778150) according to the manufacturer's recommendations. After 48-72 h of transfection, total RNA or protein was harvested. Melanin quantification: Equal numbers of cells were plated in 6-well plates. The cells were then harvested 72-96 hours post siRNA or NNT inhibitors compounds, as indicated in the legends, pelleted, washed in PBS and counted. 10^6 cells were used for measurement of protein concentration with the Pierce BCA protein assay (Thermo Fisher Scientific, #23225) and 10^6 cells were resuspended in 60 μl of 1 N NaOH solution and incubated at 60° C. for 2 h or until the melanin was completely dissolved. After cooling down to room temperature, samples were centrifuged at 500×g for 10 min and the supernatants were loaded onto a 96-well plate. The melanin content was determined by measuring the absorbance at 405 nm on an Envision plate reader, compared with a melanin standard (0 to 50 μg/ml; Sigma Aldrich, #M8631). Melanin content was expressed as micrograms per milligram of protein.

Compound | Dose needed to inhibit UVB-induced tanning (skin type 2) [1] | ability to depigment (mouse B16 melanoma cells) | ability to depigment skin (human skin explants) | Dose needed to depigment within 36 h (skin type 2) (human skin explants; human skin explants) | ability to depigment [2] | also measured
CCCCCCc1ccc(O)cc1O [4-hexylresorcinol] | 1000 µM | depigmenting effects | depigmenting effects | 5 µM | depigmenting effects | –
CC(=O)Oc1ccccc1C(=O)O [ASS, Acetylsalicylic Acid] | 10 µM | depigmenting effects | depigmenting effects | ≥ 5 µM | depigmenting effects | –
CCCCCC/C=C\CCCCCCCc1cccc(O)c1C(=O)O [Ginkgolic acid] | 100 µM | depigmenting effects | depigmenting effects | ~50 µM | depigmenting effects | lightening by Fontana Masson and H&E staining (human skin explants; FIG. 13C): displayed lightening effects; nuclear capping (human skin explants; FIG. 13C): Nuclear capping was present; Dose needed to depigment within 36 h (skin type 2), result in words (human skin explants; human skin explants): n.s.
OO [H2O2, Hydrogen peroxide] | – | – | – | – | – | NNT protein levels (NNT): did not impact NNT protein levels
CC(C)C[C@@H](C=O)NC(=O)[C@H](CC(C)C)NC(=O)[C@H](CC(C)C)NC(=O)OCc1ccccc1 [MG132, carbobenzoxy-L-leucyl-L-leucyl-L-leucinal] (Cbz-Leu-Leu-Leu-aldehyde) | – | – | – | – | – | tyrosinase protein stability in NNT-overexpressing cells (tyrosinase; UACC257, 10 μM for 6 h): prevented an NNT overexpression-induced decrease in Tyrosinase protein stability
NC(=O)C1=CN([C@@H]2O[C@H](COP(=O)(O)OP(=O)(O)OC[C@H]3O[C@@H](n4cnc5c(N)ncnc54)[C@H](OP(=O)(O)O)[C@@H]3O)[C@@H](O)[C@H]2O)C=CC1 [NADPH, β-nicontinamide adenine dinucleotide 2′-phosphate] | – | – | – | – | – | siNNT-increased tyrosinase protein stability (tyrosinase; UACC257, 5 mM NAC, 0.1 mM NADPH, 20 μM MitoTEMPO for 48 h): prevented; siNNT-mediated increase in pigmentation (UACC257 cells): inhibited the siNNT-mediated increase in pigmentation
CO[C@@H]1C[C@@H](C[C@H]2CC[C@H](C)[C@H]([C@@H](C)C(=O)O)O2)O[C@]2(O[C@](C)([C@H]3CC[C@@](C)([C@@H]4O[C@@H]([C@H]5O[C@@](O)(CO)[C@H](C)C[C@@H]5C)C[C@@H]4C)O3)C[C@H]2C)[C@@H]1C [Nigericin] | 10 to 100 µM | depigmenting effects | depigmenting effects | 5 µM | depigmenting effects | –
CC(=O)c1c(O)c(C)c(O)c2c1OC1=CC(=O)C(C(C)=O)C(=O)C12C (centres unmarked) [Usnic acid, usnic acid] | 100 µM | – | – | ≥ 5 µM | – | –
CCOc1nc2cccc(C(=O)O)c2n1Cc1ccc(-c2ccccc2-c2nnn[nH]2)cc1 [candesartan, 1-((2′-(1H-Tetrazol-5-yl)-[1,1′-biphenyl]-4-yl)methyl)-2-ethoxy-1H-benzo[d]imidazole-7-carboxylic acid] | 1000 to 10000 µM | depigmenting effects | depigmenting effects | ≥ 50 µM | depigmenting effects | –
CCCCCCCC/C=C/CCCCCCCCOP(=O)([O-])OCC[N+](C)(C)C [elaidylphosphocholine, [(E)-octadec-9-eny] 2-(trimethylazaniumyl)ethyl phosphate] | – | – | depigmenting effects | – | – | –
